The values that follow come from US8598223B2, “Crystalline forms of 4, 4′-[4-fluoro-7-({4-[4-(3-fluoro-2-methylphenyl) butoxy] phenyl} ethynyl)-2-methyl-1H-indole-1,3-diyl] dibutanoic acid, 4,4′-[2-methyl-7-({4-[4-(pentafluorophenyl) butoxy] phenyl} ethynyl)-1H-indole-1, 3-diyl] dibutanoic acid, and 4,4′-[4-fluoro-2-methyl-7-({4-[4-(2, 3, 4, …” (Ono Pharmaceutical Co., Ltd., priority 2010, dated 2013).

For data set [1], the system named is LTD4-induced bronchoconstriction in guinea pigs. As to the kind of experiment: LTD4-induced bronchoconstriction in guinea pigs (Konzett-Rossler method). Type of data set: in vivo, guinea pig. Conditions: oral, 1 mg/kg. As for the experimental part: Guinea pigs were anesthetized by injection of pentobarbital sodium (75 mg/kg, i.p.), and a polyethylene cannula was inserted into the trachea which had been incised. For the purpose of administration of LTD4, a catheter was inserted into the jugular vein of the animal. One side of the cannula inserted into the trachea was connected with a volume-controlled respirator to perform artificial respiration at a ventilation volume of 5 mL and at a ventilation rate of 70 times/min. LTD4 was administrated intravenously to induce the bronchoconstriction, and the airway resistance was measured using the Konzett-Rossler method. The bronchoconstriction response was measured for 10 minutes after LTD4-challenge, and the ratio of bronchoconstriction response was determined and represented as a percentage of the maximal increase in insufflation pressure achieved by clamping off the trachea. In this connection, the crystalline forms of the present invention were orally administered 1, 2, 4, 8, 12, 18, 24, 36 and 48 hours prior to challenge by LTD4.

The nature of data set [2]: Thermodynamical stability test by differential scanning calorimetry (DSC). The data set is classed as physicochemical. As for the experimental part:
The thermodynamical stability of each crystalline form of compound I, compound II, and compound III was analyzed by differential scanning calorimetry (DSC). As a result, it was apparent that the crystalline forms of the present invention are ones which have improved thermodynamical stability.
A general note: In DSC, transitions show as peaks or steps in heat flow.

The nature of data set [3]: Photostability test (D65 lamp). Type of data set: physicochemical. Conditions: not less than 1.2 million lux hours and 200 W·h/m^2, 25° C.±2° C., visual check. As for the experimental part:
Each crystalline form of compound I, compound II, and compound III were weighed about 5 mg, and were exposed to light from D65 lamp providing an overall illumination of not less than 1.2 million lux hours and an integrated near ultraviolet energy of not less than 200 W·h/m^2 under 25° C.±2° C.

Where [4] appears, read: administered 2 hours prior to LTD4 challenge.
The mark [5] stands for this setting: administered 24 hours prior to LTD4 challenge.

Where two headings read alike, the source gives them in different places.

For the compound `Cc1c(F)cccc1CCCCOc1ccc(/C=C/c2ccc(F)c3c(CCCC(=O)O)c(C)n(CCCC(=O)O)c23)cc1` [Comparative Example 4, 4,4′-{4-fluoro-7-[(E)-2-{4-[4-(3-fluoro-2-methylphenyl)butoxy]phenyl}vinyl]-2-methyl-1H-indole-1,3-diyl}dibutanoic acid], the bronchoconstriction inhibition ratio is given as 97.5% in data set [1] (setting [4]) and 43.2% in data set [1] (setting [5]).

Regarding `Cc1c(CCCC(=O)O)c2cccc(/C=C/c3ccc(OCCCCc4c(F)c(F)c(F)c(F)c4F)cc3)c2n1CCCC(=O)O` [Comparative Example 5, 4,4′-{2-methyl-7-[(E)-2-{4-[4-(pentafluorophenyl)butoxy]phenyl}vinyl]-1H-indole-1,3-diyl}dibutanoic acid], the bronchoconstriction inhibition ratio in data set [1] (setting [4]) worked out at 98.6%; in data set [1] (setting [5]), 74.1%.

Turning to `Cc1c(CCCC(=O)O)c2c(F)ccc(/C=C/c3ccc(OCCCCc4c(F)cc(F)c(F)c4F)cc3)c2n1CCCC(=O)O` [Comparative Example 6, 4,4′-{4-fluoro-2-methyl-7-[(E)-2-{4-[4-(2,3,4,6-tetrafluorophenyl)butoxy]phenyl}vinyl]-1H-indole-1,3-diyl}dibutanoic acid], the bronchoconstriction inhibition ratio is recorded as 53.2% in data set [1] (setting [4]) and 16.1% in data set [1] (setting [5]).

For the compound `Cc1c(F)cccc1CCCCOc1ccc(C#Cc2ccc(F)c3c(CCCC(=O)O)c(C)n(CCCC(=O)O)c23)cc1` [Example 12, 4,4′-[4-fluoro-7-({4-[4-(3-fluoro-2-methylphenyl)butoxy]phenyl}ethynyl)-2-methyl-1H-indole-1,3-diyl]dibutanoic acid], the “thermodynamical stability of the crystalline form” value (“thermodynamical stability” below) in data set [2] is recorded as “the most thermodynamically stable crystalline form”. Further, in data set [2] (listed as type C crystal of compound I), the fusion enthalpy is reported as 105.6 J/g. Also, the “photostability of the crystalline form” value in data set [3] is “photostable”.

Consider `Cc1c(CCCC(=O)O)c2cccc(C#Cc3ccc(OCCCCc4c(F)c(F)c(F)c(F)c4F)cc3)c2n1CCCC(=O)O` [Example 14, 4,4′-[2-methyl-7-({4-[4-(pentafluorophenyl)butoxy]phenyl}ethynyl)-1H-indole-1,3-diyl]dibutanoic acid], for which the bronchoconstriction inhibition ratio in data set [1] (setting [4]) is given as 98.5%; in data set [1] (setting [5]) it was 99.2%. Further, the “thermodynamical stability” value in data set [2] is on record as “thermodynamically stable”. In addition, in data set [3], the “photostability of the crystalline form” value is reported as “more photostable than type A crystal”.

As to `Cc1c(CCCC(=O)O)c2c(F)ccc(C#Cc3ccc(OCCCCc4c(F)cc(F)c(F)c4F)cc3)c2n1CCCC(=O)O` [Example 16, 4,4′-[4-fluoro-2-methyl-7-({4-[4-(2,3,4,6-tetrafluorophenyl)butoxy]phenyl}ethynyl)-1H-indole-1,3-diyl]dibutanoic acid], in data set [2], the “thermodynamical stability” value was “thermodynamically stable”. Moreover, the “photostability of the crystalline form” value in data set [3] is “photostable”.

`Cc1c(F)cccc1CCCCOc1ccc(C#Cc2ccc(F)c3c(CCCC(=O)O)c(C)n(CCCC(=O)O)c23)cc1` [type A crystal of compound I, 4,4′-[4-fluoro-7-({4-[4-(3-fluoro-2-methylphenyl)butoxy]phenyl}ethynyl)-2-methyl-1H-indole-1,3-diyl]dibutanoic acid] gave a fusion enthalpy in data set [2] of 96.3 J/g.

Take `Cc1c(CCCC(=O)O)c2cccc(C#Cc3ccc(OCCCCc4c(F)c(F)c(F)c(F)c4F)cc3)c2n1CCCC(=O)O` [type A crystal of compound II, 4,4′-[2-methyl-7-({4-[4-(pentafluorophenyl)butoxy]phenyl}ethynyl)-1H-indole-1,3-diyl]dibutanoic acid]: the “degree of change in color to yellow after test as compared to before test” value in data set [3] (type A versus type B crystal) is on record as “bigger”.

As to `Cc1c(F)cccc1CCCCOc1ccc(C#Cc2ccc(F)c3c(CCCC(=O)O)c(C)n(CCCC(=O)O)c23)cc1` [type B crystal of compound I, 4,4′-[4-fluoro-7-({4-[4-(3-fluoro-2-methylphenyl)butoxy]phenyl}ethynyl)-2-methyl-1H-indole-1,3-diyl]dibutanoic acid], the fusion enthalpy in data set [2] was 57.2 J/g.
